# Data: patent US8993741B2, “SMNdelta7 degron: novel compositions and methods of use” (The Trustees of the University of Pennsylvania, priority 2009, dated 2015)
# Peptide text beside a SMILES is read from it. * marks the point of attachment. Cbz = O=C(OCc1ccccc1)*
# Assays:
# [1] = system: Luc-SMNΔ7; test: Luc-SMNΔ7 degradation with proteolysis inhibitors in the presence of CHX; format: cell-based, human; conditions: for effect on decrease in Luc-SMNΔ7 signal: 5 hours in the presence of CHX
# Protocol: FIG. 5 is a graph depicting the effect of proteasome inhibitors on inhibiting SMNΔ7 degradation. Luciferase activity is measured after application of proteasome inhibitors (MG132 and Lactacystin), the calpain inhibitor (Calpeptin), the autophagy inhibitor (3-methyladenine; 3-MA), and the lysosomal inhibitor (ammonium chloride; NH4Cl) in the presence of CHX for 5 hours. Error bars represent SDs from three independent experiments.
# (§1) Cells (293T cells) were transfected with plasmids expressing various constructs including Luc-SMN, Luc-SMNΔ7, GFP-YG+EMLA or GFP-NS. Forty-eight hours after transfection, the cells were treated with CHX (0.1 mg/ml) for various times as indicated and then assayed for luciferase activity. Luciferase activity at each time point was calculated by comparison to those at time 0, which was set to 100%. Luciferase activities were measured using One-Glo reagent (Promega).
# SMN was previously shown to be degraded by the proteasome (Burnett et al., 2009, Mol Cell Biol 29(5):1107-15; Chang et al., 2004, Neurochem. Int. 45(7):1107-12). To determine if SMNΔ7 is also degraded by this system, cells expressing Luc-SMNΔ7 were treated with proteasome inhibitors including MG132 and Lactaeystin, for 5 hours in the presence of CHX. […] Inhibitors of other proteolytic activities, such as lysosomal proteases, autophagy, and calpain (N1-14Cl, 3-methyladenine, and calpeptin, respectively) had no effect.
# [2] = system: SMN; test: MG132 effect on amount of HA-tagged SMN (Western blot); format: cell-based, human; conditions: 10 μM MG132, 16 hours, 293T cells
# Protocol: (§2) FIG. 3, comprising FIG. 3A through FIG. 3D, is a series of images depicting the importance of residue S270 for the activity of the SMNΔ7-DEG through YG+EMLA. FIG. 3A is a schematic illustration depicting seven residues in the YG box that were each mutated to alanine, as indicated. […] depicts the results of Western blot analyses using an anti-HA tag antibody directed against HA-tagged SMN, SMNΔ7, and SMNΔ7^S270A expressed in 293T cells treated with DMSO or 10 μM MG132 (MG) for 16 hours. Fusion proteins were monitored by, and Magoh was used as a control. FIG. 3C is a graph depicting the quantification of HA-tagged proteins depicted in FIG. 3B and compared to HA-SMN without MG132 treatment. Protein amount (%) for SMNΔ7, and SMNΔ7^S270A are calculated relative to HA-SMN not treated with MG132, that is arbitrarily set to 100%. The fold change of each fusion protein amount upon MG132 treatment is indicated in red above the column. […]
# (§3) To identify specific residues in the SMN07-DEG that are important for its activity, mutagenesis of the YG box was performed wherein every second residue was converted to alanine in the context of full-length SMNΔ7 and determined the half-life of each in 293T cells. […] The levels of the tagged SMN proteins were then monitored by Western blots using anti-HA antibody (FIG. 3B).
# [3] = system: SMNΔ7; test: MG132 effect on amount of HA-tagged SMNΔ7 (Western blot); format: cell-based, human; conditions: 10 μM MG132, 16 hours, 293T cells
# Protocol: as §2, §3
# [4] = system: SMNΔ7^S270A; test: MG132 effect on amount of HA-tagged SMNΔ7^S270A (Western blot); format: cell-based, human; conditions: 10 μM MG132, 16 hours, 293T cells
# Protocol: as §2, §3
# [5] = system: 293T cells; test: Protein stability assay: luciferase activity of Luc-fused constructs after CHX treatment; format: cell-based
# Excerpt: To construct plasmids expressing Luc-fused proteins, the luciferase gene was cloned into pcDNA3.1 vector at HindIII/KpnI sites, then DNA fragments encoding full-length wild type human SMN, SMNΔ7, several deletion mutants of SMNΔ7, and optiPEST were inserted into the KpnI/XhoI sites. SMNΔ7 mutants with single amino acid change were generated by mutating residues in YG+EMLA to alanine by Quickchange site-directed mutagenesis kit (Stratagene).
# as §1
# A reporter system that recapitulates the differential stability of full-length SMN and SMNΔ7 and allows quantitative assessment of SMNΔ7's instability determinants was developed. […] Forty-eight hours after transfection, cells were treated with the protein synthesis inhibitor cycloheximide (CHX), and luciferase activity was measured at time intervals of up to 10 hours. […]
# [6] = system: S5 cells; test: Rescue of S5 cell viability after tetracycline depletion of SMN; format: cell-based, chicken; conditions: retroviral expression, one week after tetracycline (1 μg/ml)
# Protocol: FIG. 4, comprising FIG. 4A through FIG. 4D, is a series of images depicting the functionality of SMNΔ7^S270A in snRNP assembly and its ability to rescue SMN-deficient cells. FIG. 4 A is a series of panels depicting S5 cells cultured in the presence of tetracycline (1 μg/ml) to deplete endogenous SMN and infected with retroviruses expressing SMN, SMNΔ7, or SMNΔ7^S270A. FIG. 4B is a graph depicting cell growth as in FIG. 4A measured by monitoring the number of live cells at the indicated time points following tetracycline addition. FIG. 4C depicts the results of Western blot analyses of SMN protein in rescued cells (10 days after tetracycline addition). FIG. 4D is a graph depicting SMN complex activity (%) as measured by in vitro snRNP assembly on U4 snRNA in cytoplasmic extracts from rescued cells, using U4ΔSm RNA as a control.
# S5 cells were maintained and infected with retroviruses expressing SMN, SMNΔ7, and SMNΔ7^S270A as described (Wang et al., 2001, J. Biol. Chem. 276:9599).
# To determine whether SMNΔ7^S270A is a functional SMN protein, a previously established cell system, the S5 cell line, was used to investigate if SMNΔ7^S270A could rescue the viability of SMN-depleted cells. […]
compound,measurement,setting,value
CC(C)C[C@@H](C=O)NC(=O)[C@H](CC(C)C)NC(=O)[C@H](CC(C)C)NC(=O)OCc1ccccc1 [MG132] (Cbz-Leu-Leu-Leu-aldehyde),effect on decrease in Luc-SMNΔ7 signal,[1],much smaller decrease
same,effect on the amount of SMN,[2],only a moderate effect
same,increase in the amount of SMNΔ7,[3],3.4 fold
same,effect on the amount of SMNΔ7^S270A,[4],only a moderate effect
CCCC[C@@H](C=O)NC(=O)[C@H](CC(C)C)NC(=O)OCc1ccccc1 [calpeptin],effect on decrease in Luc-SMNΔ7 signal,[1],no effect
CC(=O)N[C@@H](CSC(=O)[C@]1([C@@H](O)C(C)C)NC(=O)[C@H](C)[C@@H]1O)C(=O)O [Lactacystin],effect on decrease in Luc-SMNΔ7 signal,[1],much smaller decrease
"Cl.N [N1-14Cl, ammonium chloride]",effect on decrease in Luc-SMNΔ7 signal,[1],no effect
"C[C@@H]1C[C@@H]([C@H](O)CC2CC(=O)NC(=O)C2)C(=O)[C@@H](C)C1 [CHX, cycloheximide]",decrease in signal (luciferase),"[1]; CHX alone, 5 hours, cells expressing Luc-SMNΔ7",60%
"SMN: full-length wild type human survival of motor neurons protein, tested as Luc- or HA-fusion or retrovirally expressed",half-life (t1/2),"[5]; Luc fusion in 293T cells, CHX 0.1 mg/ml, up to 10 hours",> 8 h
same,amount of SMN relative to SMNΔ7,[5]; after 10 hours of CHX chase,3 times
same,rescue of viability of SMN-depleted S5 cells,[6],rescued the viability of S5 cells
Cn1cnc(N)c2ncnc1-2 [3-methyladenine],effect on decrease in Luc-SMNΔ7 signal,[1],no effect
